Our source for the EC50 and IC90 values is patent US20240228488A1 (TAKEDA PHARMACEUTICAL COMPANY LIMITED, priority 2021, published 2024).

Experiment [1] deals with human activated kallikrein enzyme (Homo sapiens, UniProt P03952). Description: Plasma kallikrein inhibition, fluorogenic PFR-AMC substrate, 500 pM activated kallikrein format. The format is biochemical. As to conditions: 500 pM activated kallikrein, 300 uM PFR-AMC, 30 min preincubation, 10 min reaction; read-out: Primary Dose Response Assay: Average EC50. Put shortly:
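High-enzyme format of the fluorogenic peptide assay, with EC50 taken from AMC signal: 500 pM activated kallikrein, 300 uM Pro-Phe-Arg-AMC, 30 min compound preincubation and 10 min reaction, all at room temperature, pH 7.5.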

The target in the next experiment is T1, plasma kallikrein (Homo sapiens, UniProt P03952).
T1 construct: from tissue
The experiment in a line: Neat human plasma assay, FXIIa contact pathway-activated, PFR-AMC substrate. It counts as biochemical. To be noted: citrated human plasma 78% final, 10 nM human FXIIa, 100 μM PFR-AMC; read-out: Human Plasma Assay: IC90. Put shortly: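 Compound inhibition of plasma kallikrein measured as PFR-AMC (100 μM) cleavage rate over 5 min at room temperature in 78% citrated human plasma activated with 10 nM FXIIa (Tris pH 7.5 buffer). IC50/IC90 from 4-parameter fit of rate versus inhibitor concentration.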

T1 sequence (P03952 391-638 limits assumed): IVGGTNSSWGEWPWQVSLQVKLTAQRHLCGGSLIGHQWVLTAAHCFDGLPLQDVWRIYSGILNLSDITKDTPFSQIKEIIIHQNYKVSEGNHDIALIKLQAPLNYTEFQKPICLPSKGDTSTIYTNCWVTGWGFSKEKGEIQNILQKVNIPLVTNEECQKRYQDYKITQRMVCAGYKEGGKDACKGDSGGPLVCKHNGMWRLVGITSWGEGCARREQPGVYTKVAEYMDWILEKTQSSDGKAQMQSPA
T1 sequence (P03952 20-390 partner limits assumed): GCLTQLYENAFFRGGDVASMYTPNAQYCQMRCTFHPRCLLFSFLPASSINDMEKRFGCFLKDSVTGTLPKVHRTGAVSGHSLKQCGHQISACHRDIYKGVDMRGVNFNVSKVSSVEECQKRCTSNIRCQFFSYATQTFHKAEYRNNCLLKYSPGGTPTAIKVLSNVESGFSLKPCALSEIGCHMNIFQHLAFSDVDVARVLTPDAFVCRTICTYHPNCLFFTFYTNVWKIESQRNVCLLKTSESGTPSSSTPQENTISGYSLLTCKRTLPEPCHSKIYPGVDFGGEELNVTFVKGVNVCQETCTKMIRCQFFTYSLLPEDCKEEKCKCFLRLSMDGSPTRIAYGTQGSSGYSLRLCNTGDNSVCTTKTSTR
Sequence of human activated kallikrein enzyme (P03952 391-638 limits assumed): as the sequence (P03952 391-638 limits assumed) above
Sequence of human activated kallikrein enzyme (P03952 20-390 partner limits assumed): as the sequence (P03952 20-390 partner limits assumed) above

Regarding `O=C(Nc1cc(NCc2cn3cc(C4CC4)cc(N4C(=O)C5CCC4C5)c3n2)ccn1)[C@H]1C[C@@H]1c1cccc(Cl)c1` (stereo partly drawn) [Example 92, (1S,2S)-2-(3-chlorophenyl)-N-(4-(((6-cyclopropyl-8-(3-oxo-2-azabicyclo[2.2.1]heptan-2-yl)imidazo[1,2-a]pyridin-2-yl)methyl)amino)pyridin-2-yl)cyclopropane-1-carboxamide], the EC50 in experiment [1] was under 0.001 µM. Also, at plasma kallikrein, the IC90 lay in the range of 1.5 to 10 µM.
Take `CN1CCC(Nc2cc(C3CC3)cn3cc(CNc4cc(NC(=O)[C@H]5C[C@@H]5c5cccc(Cl)c5)ncn4)nc23)CC1` [Example I-5, (1S,2S)-2-(3-chlorophenyl)-N-(6-(((6-cyclopropyl-8-((1-methylpiperidin-4-yl)amino)imidazo[1,2-a]pyridin-2-yl)methyl)amino)pyrimidin-4-yl)cyclopropane-1-carboxamide]: the EC50 in experiment [1] was under 0.001 µM. Further, at plasma kallikrein, the IC90 was 0.4 to 1.5 µM.
`O=C(Nc1cc(NCc2cn3cc(C4CC4)cc(C(=O)N4CCOCC4)c3n2)ncn1)[C@H]1C[C@@H]1c1cccc(Cl)c1` [Example 300, (1S,2S)-2-(3-chlorophenyl)-N-(6-(((6-cyclopropyl-8-(morpholine-4-carbonyl)imidazo[1,2-a]pyridin-2-yl)methyl)amino)pyrimidin-4-yl)cyclopropane-1-carboxamide]: the EC50 in experiment [1] was under 0.001 µM. Also, the IC90 on plasma kallikrein is 1.5 to 10 µM.
In the case of `CCN1CCN(c2cc(C3CC3)cn3cc(CNc4cc(NC(=O)[C@H]5C[C@@H]5c5nccc(C)n5)ncn4)nc23)CC1` [Example 383, (1S,2S)-N-(6-(((6-cyclopropyl-8-(4-ethylpiperazin-1-yl)imidazo[1,2-a]pyridin-2-yl)methyl)amino)pyrimidin-4-yl)-2-(4-methylpyrimidin-2-yl)cyclopropane-1-carboxamide], in experiment [1], the EC50 was under 0.001 µM. In addition, the concentration for an effect of 90% (IC90) at plasma kallikrein is under 0.4 µM.
In the same order, the values of `Cc1ccnc([C@H]2C[C@@H]2C(=O)Nc2cc(NCc3cn4cc(C5CC5)cc(N5CCCC5=O)c4n3)ncn2)n1` (racemic) [Example 389, rac-(1S*,2S*)-N-(6-(((6-cyclopropyl-8-(2-oxopyrrolidin-1-yl)imidazo[1,2-a]pyridin-2-yl)methyl)amino)pyrimidin-4-yl)-2-(4-methylpyrimidin-2-yl)cyclopropane-1-carboxamide] are under 0.001 µM and 0.4 to 1.5 µM.
Regarding `Cc1ccnc([C@H]2C[C@@H]2C(=O)Nc2cc(N[C@H](C)c3cn4cc(C(C)C)cc(N5CC(=O)N(C)C5=O)c4n3)ncn2)n1` [Example I-679, (1S,2S)—N-(6-(((R)-1-(6-isopropyl-8-(3-methyl-2,4-dioxoimidazolidin-1-yl)imidazo[1,2-a]pyridin-2-yl)ethyl)amino)pyrimidin-4-yl)-2-(4-methylpyrimidin-2-yl)cyclopropane-1-carboxamide], the EC50 in experiment [1] is under 0.001 µM. Also, the IC90 on plasma kallikrein is under 0.4 µM.
With `Cc1ccnc([C@@]2(F)C[C@@H]2C(=O)Nc2cc(N(C)Cc3cn4cc(C5CC5)cc(N5CC(=O)N(C)C5=O)c4n3)nc(C)n2)n1` (racemic) [Example 490, rac-(1S*,2S*)-N-(6-(((6-cyclopropyl-8-(3-methyl-2,4-dioxoimidazolidin-1-yl)imidazo[1,2-a]pyridin-2-yl)methyl)(methyl)amino)-2-methylpyrimidin-4-yl)-2-fluoro-2-(4-methylpyrimidin-2-yl)cyclopropane-1-carboxamide], in experiment [1], the EC50 is under 0.001 µM. Further, on plasma kallikrein, the IC90 lay in the range of 0.4 to 1.5 µM.
Consider `CN1C(=O)CN(c2cc(C3CC3)cn3cc(CNc4ccnc(NC(=O)[C@H]5C[C@@H]5c5cccc(Cl)c5)c4)nc23)C1=O` [Example I-209, (1S,2S)-2-(3-chlorophenyl)-N-(4-(((6-cyclopropyl-8-(3-methyl-2,4-dioxoimidazolidin-1-yl)imidazo[1,2-a]pyridin-2-yl)methyl)amino)pyridin-2-yl)cyclopropane-1-carboxamide], for which the EC50 in experiment [1] is under 0.001 µM. The IC90 on plasma kallikrein lay in the range of 0.4 to 1.5 µM.
Turning to `CN1C(=O)CN(c2cc(C3CC3)cn3cc(CNc4cc(NC(=O)[C@H]5C[C@@H]5c5cccc(Cl)c5)ncn4)nc23)C1=O` [Example I-169, (1S,2S)-2-(3-chlorophenyl)-N-(6-(((6-cyclopropyl-8-(3-methyl-2,4-dioxoimidazolidin-1-yl)imidazo[1,2-a]pyridin-2-yl)methyl)amino)pyrimidin-4-yl)cyclopropane-1-carboxamide], the EC50 in experiment [1] was under 0.001 µM. Besides, on plasma kallikrein, the IC90 was 0.4 to 1.5 µM.
Take `Cc1nc([C@H]2C[C@@H]2C(=O)Nc2cc(NCc3cn4cc(C5CC5)cc(N5CC(=O)N(C)C5=O)c4n3)ncn2)cs1` (racemic) [Example 493, rac-(1S*,2S*)-N-(6-(((6-cyclopropyl-8-(3-methyl-2,4-dioxoimidazolidin-1-yl)imidazo[1,2-a]pyridin-2-yl)methyl)amino)pyrimidin-4-yl)-2-(2-methylthiazol-4-yl)cyclopropane-1-carboxamide]: the EC50 in experiment [1] lay in the range of 0.001 to 0.01 µM. Also, the IC90 on plasma kallikrein is 0.4 to 1.5 µM.
As for `CC(=O)N(C)c1cc(C2CC2)cn2cc(CNc3cc(NC(=O)[C@H]4C[C@@H]4c4cccc(Cl)c4)ncn3)nc12` [Example 274, (1S,2S)-2-(3-chlorophenyl)-N-(6-(((6-cyclopropyl-8-(N-methylacetamido)imidazo[1,2-a]pyridin-2-yl)methyl)amino)pyrimidin-4-yl)cyclopropane-1-carboxamide], in experiment [1], the EC50 was 0.001 to 0.01 µM. Moreover, on plasma kallikrein, the IC90 is 1.5 to 10 µM.
Turning to `O=C(Nc1cc(NCc2cn3cc(C4CC4)ccc3n2)ccn1)[C@H]1C[C@@H]1c1cccc(Cl)c1` (single isomer, unassigned) [Example 117], the EC50 in experiment [1] was under 0.001 µM. Besides, the IC90 at plasma kallikrein fell in the range of 1.5 to 10 µM.
In the case of `CC(=O)c1cc(C2CC2)cn2cc(CNc3cc(NC(=O)[C@H]4C[C@@H]4c4cccc(Cl)c4)ncn3)nc12` [Example I-207, (1S,2S)-N-(6-(((8-acetyl-6-cyclopropylimidazo[1,2-a]pyridin-2-yl)methyl)amino)pyrimidin-4-yl)-2-(3-chlorophenyl)cyclopropane-1-carboxamide], in experiment [1], the half-maximal effective concentration (EC50) was in the range of 0.001 to 0.01 µM. Also, the IC90 on plasma kallikrein lay in the range of 1.5 to 10 µM.
For the molecule `O=C(Nc1cc(N2C[C@@H](O)C[C@@H]2c2cn3cc(C4CC4)cc(N4CCOC4=O)c3n2)ncn1)[C@H]1C[C@@H]1c1cccc(Cl)c1` [Example 479, (1S,2S)-2-(3-chlorophenyl)-N-(6-((2R,4S)-2-(6-cyclopropyl-8-(2-oxooxazolidin-3-yl)imidazo[1,2-a]pyridin-2-yl)-4-hydroxypyrrolidin-1-yl)pyrimidin-4-yl)cyclopropane-1-carboxamide], the EC50 in experiment [1] lay in the range of 0.001 to 0.01 µM. In addition, the IC90 on plasma kallikrein lay in the range of 1.5 to 10 µM.
`Cc1ccnc([C@H]2C[C@@H]2C(=O)Nc2cc(NCc3cn4cc(C5CC5)cc(S(C)(=O)=O)c4n3)ncn2)n1` (racemic) [Example 322, rac-(1S*,2S*)—N-(6-(((6-cyclopropyl-8-(methylsulfonyl)imidazo[1,2-a]pyridin-2-yl)methyl)amino)pyrimidin-4-yl)-2-(4-methylpyrimidin-2-yl)cyclopropane-1-carboxamide]: the EC50 in experiment [1] is under 0.001 µM. In addition, the concentration for an effect of 90% (IC90) at plasma kallikrein lay in the range of 0.4 to 1.5 µM.
In the case of `CN1C(=O)CN(Cc2cc(C3CC3)cn3cc(CNc4cc(NC(=O)[C@H]5C[C@@H]5c5cccc(Cl)c5)ncn4)nc23)C1=O` [Example 400, (1S,2S)-2-(3-chlorophenyl)-N-(6-(((6-cyclopropyl-8-((3-methyl-2,4-dioxoimidazolidin-1-yl)methyl)imidazo[1,2-a]pyridin-2-yl)methyl)amino)pyrimidin-4-yl)cyclopropane-1-carboxamide], in experiment [1], the EC50 fell in the range of 0.001 to 0.01 µM. In addition, the IC90 at plasma kallikrein lay in the range of 1.5 to 10 µM.
For the molecule `CC(=O)Nc1cc(C2CC2)cn2cc(CNc3cc(NC(=O)[C@H]4C[C@@H]4c4cccc(Cl)c4)ncn3)nc12` [Example 275, (1S,2S)—N-(6-(((8-acetamido-6-cyclopropylimidazo[1,2-a]pyridin-2-yl)methyl)amino)pyrimidin-4-yl)-2-(3-chlorophenyl)cyclopropane-1-carboxamide], the EC50 in experiment [1] is 0.001 to 0.01 µM. Also, on plasma kallikrein, the concentration for an effect of 90% (IC90) is 1.5 to 10 µM.
Take `O=C(Nc1cc(NCc2cn3cc(C4CC4)cc(C4(F)COC4)c3n2)ccn1)[C@H]1C[C@@H]1c1cccc(Cl)c1` (racemic) [Example 294, rac-(1S*,2S*)-2-(3-chlorophenyl)-N-(4-(((6-cyclopropyl-8-(3-fluorooxetan-3-yl)imidazo[1,2-a]pyridin-2-yl)methyl)amino)pyridin-2-yl)cyclopropane-1-carboxamide]: the EC50 in experiment [1] is under 0.001 µM. In addition, the IC90 at plasma kallikrein was 10 to 48 µM.
On to `CN(C)C1CCN(c2cc(C3CC3)cn3cc(CNc4cc(NC(=O)[C@H]5C[C@@H]5c5cccc(Cl)c5)ncn4)nc23)C1=O` (stereo partly drawn) [Example I-17, (1S,2S)-2-(3-chlorophenyl)-N-(6-(((6-cyclopropyl-8-(3-(dimethylamino)-2-oxopyrrolidin-1-yl)imidazo[1,2-a]pyridin-2-yl)methyl)amino)pyrimidin-4-yl)cyclopropane-1-carboxamide], for which, in experiment [1], the EC50 was under 0.001 µM. Moreover, the IC90 at plasma kallikrein lay in the range of 0.4 to 1.5 µM.
On to `CC(C)(O)c1cc(C2CC2)cn2cc(CNc3ccnc(NC(=O)[C@H]4C[C@@H]4c4cccc(Cl)c4)c3)nc12` [Example 122, (1S,2S)-2-(3-chlorophenyl)-N-(4-(((6-cyclopropyl-8-(2-hydroxypropan-2-yl)imidazo[1,2-a]pyridin-2-yl)methyl)amino)pyridin-2-yl)cyclopropane-1-carboxamide], for which, in experiment [1], the EC50 lay in the range of 0.001 to 0.01 µM. Further, on plasma kallikrein, the IC90 lay in the range of 10 to 48 µM.

As a reminder, the EC50 is the concentration at which the effect is half-maximal. For orientation: IC90 means the concentration at which the effect reaches the 90% level.
